Measured values from the supplement of paper PMC12463676, “Small-molecule dissolution of stress granules by redox modulation benefits ALS models” (Nature Chemical Biology, 2025).

Key:
[1] = compound: NC(=O)CCCCC1CCSS1 [lipoamide]; test: thermal stability z-score vs DMSO; higher = more thermally stabilized by treatment; details: HeLa, lipoamide concentration 100 µM
Method: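 Cellular thermal proteome profiling in HeLa cells. Cells were treated with 100 µM lipoamide for 1 h, with or without 1 mM arsenate for a further 1 h, then heated to ten temperatures (37-66.3 °C), and soluble protein was quantified by TMT mass spectrometry relative to 0.1% DMSO controls. The thermal stability score (sum of log2 fold changes minus the abundance score) was transformed to a z-score; mean of n = 3 experiments.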

[2] = compound: O=[As]([O-])(O)O.[K+] [potassium arsenate]; test: as above; details: HeLa; arsenate concentration 1 mM
Method: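 Cellular thermal proteome profiling in HeLa cells treated with 1 mM arsenate for 1 h (DMSO pretreatment), heated to ten temperatures (37-66.3 °C). Soluble protein was quantified by TMT mass spectrometry relative to DMSO controls; the thermal stability score was transformed to a z-score; mean of n = 3 experiments.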

[3] = arsenate co-treatment: 1 mM arsenate 1 h
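Also: each temperature applied for 3 min, abundance score taken as mean log2 fold change at the two lowest temperatures, z-score obtained by mean subtraction and division by SD.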

Sequence of UniProt Q9C0B7 (Q9C0B7 whole entry): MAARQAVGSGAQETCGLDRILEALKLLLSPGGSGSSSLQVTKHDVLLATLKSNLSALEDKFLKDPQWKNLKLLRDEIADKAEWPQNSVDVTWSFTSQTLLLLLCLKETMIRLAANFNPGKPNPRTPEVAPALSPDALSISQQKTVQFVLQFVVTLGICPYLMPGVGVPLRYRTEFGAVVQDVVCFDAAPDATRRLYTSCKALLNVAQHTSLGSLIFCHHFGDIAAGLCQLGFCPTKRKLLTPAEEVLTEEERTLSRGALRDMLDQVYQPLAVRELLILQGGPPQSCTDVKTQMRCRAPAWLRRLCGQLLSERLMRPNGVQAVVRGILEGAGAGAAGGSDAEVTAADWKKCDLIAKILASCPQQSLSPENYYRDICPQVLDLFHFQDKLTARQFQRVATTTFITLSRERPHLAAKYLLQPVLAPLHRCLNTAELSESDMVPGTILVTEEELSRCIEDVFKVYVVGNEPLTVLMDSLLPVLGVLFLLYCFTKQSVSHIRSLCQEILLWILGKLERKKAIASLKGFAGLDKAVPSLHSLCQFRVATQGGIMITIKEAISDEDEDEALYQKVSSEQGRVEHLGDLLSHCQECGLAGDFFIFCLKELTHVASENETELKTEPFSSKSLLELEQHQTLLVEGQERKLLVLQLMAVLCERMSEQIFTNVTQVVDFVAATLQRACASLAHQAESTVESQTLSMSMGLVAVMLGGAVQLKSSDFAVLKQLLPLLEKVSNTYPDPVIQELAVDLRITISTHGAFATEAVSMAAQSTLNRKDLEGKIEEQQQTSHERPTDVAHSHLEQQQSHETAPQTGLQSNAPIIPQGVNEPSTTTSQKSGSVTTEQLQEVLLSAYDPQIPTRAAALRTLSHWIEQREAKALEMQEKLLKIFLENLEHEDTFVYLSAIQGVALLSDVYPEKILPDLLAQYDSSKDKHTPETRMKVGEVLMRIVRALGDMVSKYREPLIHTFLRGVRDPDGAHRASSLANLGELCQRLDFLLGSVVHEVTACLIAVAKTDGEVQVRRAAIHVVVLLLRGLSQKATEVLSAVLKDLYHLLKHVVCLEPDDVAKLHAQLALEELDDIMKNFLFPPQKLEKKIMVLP
Sequence of UniProt Q99707 (Q99707 whole entry): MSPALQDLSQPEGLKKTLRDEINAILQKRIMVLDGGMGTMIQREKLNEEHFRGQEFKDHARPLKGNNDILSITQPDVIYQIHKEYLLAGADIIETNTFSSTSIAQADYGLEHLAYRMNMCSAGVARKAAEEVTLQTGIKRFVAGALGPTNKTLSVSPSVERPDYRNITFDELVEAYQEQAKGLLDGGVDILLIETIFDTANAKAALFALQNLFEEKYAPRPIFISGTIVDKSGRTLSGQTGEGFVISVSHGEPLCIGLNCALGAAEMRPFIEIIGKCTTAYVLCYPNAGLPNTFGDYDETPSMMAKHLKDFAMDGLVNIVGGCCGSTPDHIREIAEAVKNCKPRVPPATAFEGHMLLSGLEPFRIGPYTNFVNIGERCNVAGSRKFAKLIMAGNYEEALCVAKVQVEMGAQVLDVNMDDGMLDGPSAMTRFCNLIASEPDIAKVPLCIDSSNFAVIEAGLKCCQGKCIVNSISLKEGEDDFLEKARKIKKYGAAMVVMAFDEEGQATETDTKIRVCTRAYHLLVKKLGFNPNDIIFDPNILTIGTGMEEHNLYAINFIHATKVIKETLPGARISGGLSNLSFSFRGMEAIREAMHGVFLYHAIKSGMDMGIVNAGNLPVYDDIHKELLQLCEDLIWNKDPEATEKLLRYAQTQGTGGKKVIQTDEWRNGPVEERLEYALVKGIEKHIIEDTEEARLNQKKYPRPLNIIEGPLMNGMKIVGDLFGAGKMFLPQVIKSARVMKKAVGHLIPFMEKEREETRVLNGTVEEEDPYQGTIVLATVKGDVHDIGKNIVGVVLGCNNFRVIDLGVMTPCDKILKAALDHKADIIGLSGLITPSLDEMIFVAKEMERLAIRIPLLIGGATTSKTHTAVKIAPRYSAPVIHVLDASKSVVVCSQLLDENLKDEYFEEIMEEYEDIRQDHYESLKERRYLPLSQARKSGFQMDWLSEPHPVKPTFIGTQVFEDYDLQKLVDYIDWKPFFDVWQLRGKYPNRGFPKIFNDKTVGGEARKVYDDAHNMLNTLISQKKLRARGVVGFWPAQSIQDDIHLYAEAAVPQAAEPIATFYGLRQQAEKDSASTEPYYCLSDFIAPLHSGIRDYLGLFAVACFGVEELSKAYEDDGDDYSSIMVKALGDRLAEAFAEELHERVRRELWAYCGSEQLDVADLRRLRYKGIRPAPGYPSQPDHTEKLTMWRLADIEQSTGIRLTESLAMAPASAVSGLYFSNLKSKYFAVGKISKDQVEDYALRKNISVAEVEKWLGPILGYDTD
Sequence of UniProt O60427 (O60427 whole entry, looked up): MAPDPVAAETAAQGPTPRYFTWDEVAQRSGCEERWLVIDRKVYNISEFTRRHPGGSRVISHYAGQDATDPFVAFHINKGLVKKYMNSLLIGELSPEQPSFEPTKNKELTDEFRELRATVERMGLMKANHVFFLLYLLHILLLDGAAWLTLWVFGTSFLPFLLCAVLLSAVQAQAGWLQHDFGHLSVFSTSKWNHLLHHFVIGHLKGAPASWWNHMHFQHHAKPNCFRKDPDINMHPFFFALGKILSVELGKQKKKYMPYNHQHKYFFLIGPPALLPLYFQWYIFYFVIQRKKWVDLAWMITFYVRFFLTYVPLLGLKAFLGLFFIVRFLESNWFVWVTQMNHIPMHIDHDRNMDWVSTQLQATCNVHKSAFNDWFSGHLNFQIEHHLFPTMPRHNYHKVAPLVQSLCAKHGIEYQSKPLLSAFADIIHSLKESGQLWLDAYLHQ
Sequence of UniProt Q96QC0 (Q96QC0 whole entry): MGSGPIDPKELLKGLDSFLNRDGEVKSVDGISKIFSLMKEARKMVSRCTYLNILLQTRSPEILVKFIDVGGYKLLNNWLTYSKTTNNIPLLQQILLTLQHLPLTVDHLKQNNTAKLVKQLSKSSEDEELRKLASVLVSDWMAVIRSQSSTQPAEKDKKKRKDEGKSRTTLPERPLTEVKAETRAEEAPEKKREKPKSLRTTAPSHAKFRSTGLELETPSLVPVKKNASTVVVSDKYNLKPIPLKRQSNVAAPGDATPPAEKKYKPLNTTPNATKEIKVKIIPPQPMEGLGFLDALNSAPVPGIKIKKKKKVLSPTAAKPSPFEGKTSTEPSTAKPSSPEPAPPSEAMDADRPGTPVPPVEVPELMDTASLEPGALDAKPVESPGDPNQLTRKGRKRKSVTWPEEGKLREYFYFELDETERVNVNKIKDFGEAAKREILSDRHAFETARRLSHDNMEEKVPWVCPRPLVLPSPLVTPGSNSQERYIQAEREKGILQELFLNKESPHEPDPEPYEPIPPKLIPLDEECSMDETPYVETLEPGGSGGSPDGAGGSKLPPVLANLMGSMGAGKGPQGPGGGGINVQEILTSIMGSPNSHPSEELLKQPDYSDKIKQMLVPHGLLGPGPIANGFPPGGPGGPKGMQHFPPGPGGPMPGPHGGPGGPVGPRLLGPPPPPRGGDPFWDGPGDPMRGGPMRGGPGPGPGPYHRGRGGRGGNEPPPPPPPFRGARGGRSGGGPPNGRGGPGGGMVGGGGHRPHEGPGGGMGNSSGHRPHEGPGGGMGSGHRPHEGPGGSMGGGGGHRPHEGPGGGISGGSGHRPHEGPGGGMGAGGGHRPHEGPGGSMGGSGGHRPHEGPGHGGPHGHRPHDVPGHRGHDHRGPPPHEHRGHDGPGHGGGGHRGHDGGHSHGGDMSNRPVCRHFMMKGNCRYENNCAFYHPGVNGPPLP
Sequence of UniProt Q9BV38 (Q9BV38 whole entry): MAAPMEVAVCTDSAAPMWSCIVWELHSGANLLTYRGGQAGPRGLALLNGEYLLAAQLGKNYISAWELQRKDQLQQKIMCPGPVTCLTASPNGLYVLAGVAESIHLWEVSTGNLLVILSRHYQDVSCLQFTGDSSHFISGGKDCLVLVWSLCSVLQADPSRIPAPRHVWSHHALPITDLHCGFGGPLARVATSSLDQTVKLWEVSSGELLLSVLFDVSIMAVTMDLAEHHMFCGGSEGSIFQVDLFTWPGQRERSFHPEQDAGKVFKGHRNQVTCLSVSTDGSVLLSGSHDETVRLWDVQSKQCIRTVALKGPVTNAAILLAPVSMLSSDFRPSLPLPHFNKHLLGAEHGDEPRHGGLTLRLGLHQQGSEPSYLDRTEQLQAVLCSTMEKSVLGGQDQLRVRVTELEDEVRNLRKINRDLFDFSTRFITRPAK
Sequence of UniProt Q96SU4 (Q96SU4 whole entry): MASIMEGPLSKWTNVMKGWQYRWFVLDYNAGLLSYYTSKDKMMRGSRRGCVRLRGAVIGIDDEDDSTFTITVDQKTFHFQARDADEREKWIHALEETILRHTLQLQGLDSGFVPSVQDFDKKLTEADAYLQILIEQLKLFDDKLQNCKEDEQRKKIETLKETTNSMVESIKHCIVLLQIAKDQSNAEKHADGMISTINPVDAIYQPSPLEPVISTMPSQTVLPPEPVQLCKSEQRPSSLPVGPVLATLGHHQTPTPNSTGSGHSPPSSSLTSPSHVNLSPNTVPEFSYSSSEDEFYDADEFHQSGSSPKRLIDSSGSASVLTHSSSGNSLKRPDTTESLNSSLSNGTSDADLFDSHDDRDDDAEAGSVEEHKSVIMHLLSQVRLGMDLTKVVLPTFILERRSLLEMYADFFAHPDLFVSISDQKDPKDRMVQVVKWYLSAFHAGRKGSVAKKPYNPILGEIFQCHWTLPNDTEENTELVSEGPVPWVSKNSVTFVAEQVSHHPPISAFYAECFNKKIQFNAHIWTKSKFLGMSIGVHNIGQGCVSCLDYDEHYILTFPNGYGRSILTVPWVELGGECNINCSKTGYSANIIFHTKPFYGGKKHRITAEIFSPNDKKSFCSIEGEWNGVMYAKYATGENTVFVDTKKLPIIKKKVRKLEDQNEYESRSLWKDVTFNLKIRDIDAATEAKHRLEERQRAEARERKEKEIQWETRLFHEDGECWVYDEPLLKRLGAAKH
Sequence of UniProt Q9HBL7 (Q9HBL7 whole entry): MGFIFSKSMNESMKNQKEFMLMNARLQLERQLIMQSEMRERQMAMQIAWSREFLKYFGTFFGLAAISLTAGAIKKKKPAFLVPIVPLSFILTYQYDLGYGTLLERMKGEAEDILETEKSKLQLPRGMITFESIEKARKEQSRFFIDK

Target | thermal stability z-score [1, 3] | thermal stability z-score ([1]; arsenate co-treatment: none) | thermal stability z-score [2]
NCOA2 (UniProt Q15596) | -0.239 | -0.0592 | -0.284
TANGO6 (UniProt Q9C0B7) | -0.908 | -0.59 | 0.475
HMCES (UniProt Q96FZ2) | 0.164 | 0.254 | -0.565
RPS6KA3 (UniProt P51812) | -0.607 | -0.345 | 0.388
RPS3A (UniProt P61247) | 0.23 | 0.114 | -0.818
HFE (UniProt Q30201) | -0.0165 | 0.389 | 0.0645
KIF3A (UniProt Q9Y496) | -0.146 | 0.418 | 0.523
HSPA12A (UniProt O43301) | -0.677 | -0.446 | -0.84
SGTA (UniProt O43765) | 0.332 | 0.487 | 0.149
SLC6A6 (UniProt P31641) | -0.428 | -0.488 | -0.649
OSBPL9 (UniProt Q96SU4) | -0.647 | -0.627 | 0.219
NUDT16 (UniProt Q96DE0) | 0.938 | 0.232 | -0.335
GPATCH11 (UniProt Q8N954) | -0.804 | -0.268 | 0.108
FADS1 (UniProt O60427) | 0.469 | 0.181 | 0.226
PPM1L (UniProt Q5SGD2) | -0.022 | -0.095 | -0.192
SMPD4 (UniProt Q9NXE4) | 0.624 | 0.149 | 1.11
SRRM1 (UniProt Q8IYB3) | 0.79 | 0.714 | -2.14
MRPS21 (UniProt P82921) | -0.28 | -0.78 | 1.03
GPR107 (UniProt Q5VW38) | -0.0315 | 0.243 | 0.169
HMGN1 (UniProt P05114) | 0.242 | 0.681 | -0.289
BTF3L4 (UniProt Q96K17) | 0.212 | 0.17 | -0.154
EXT2 (UniProt Q93063) | -1.16 | -0.953 | -0.573
ACTR1A (UniProt P61163) | 0.0148 | 0.0511 | -0.614
EVL (UniProt Q9UI08) | -0.0697 | 0.187 | -0.462
MVD (UniProt P53602) | 0.0441 | -0.0153 | -0.0067
MGAT4B (UniProt Q9UQ53) | 0.713 | -0.264 | 0.26
PDS5B (UniProt Q9NTI5) | 0.839 | 0.426 | -0.362
CACUL1 (UniProt Q86Y37) | 0.0904 | 0.129 | -0.563

Target | thermal stability z-score [1, 3] | thermal stability z-score ([1]; arsenate co-treatment: none) | thermal stability z-score [2]
DCAF13 (UniProt Q9NV06) | -0.43 | -0.325 | 1.25
GATSL2 (UniProt A6NHX0) | 0.724 | -1.44 | -0.242
CASP3 (UniProt P42574) | 0.382 | -0.0479 | -0.737
DDX50 (UniProt Q9BQ39) | 0.262 | 0.192 | -0.49
SCCPDH (UniProt Q8NBX0) | 0.163 | 0.0672 | 0.139
TPRA1 (UniProt Q86W33) | -0.68 | -0.251 | 0.19
PXDN (UniProt Q92626) | -1.65 | -1.61 | 0.0514
LDHB (UniProt P07195) | 0.679 | 0.658 | 0.13
FAM219A (UniProt Q8IW50) | -1.69 | 2.4 | -9.1
RPL3 (UniProt P39023) | 0.408 | -0.0552 | -0.75
USP14 (UniProt P54578) | 0.406 | -0.143 | -0.0718
PTDSS2 (UniProt Q9BVG9) | 0.2 | -0.0317 | -0.0291
PDXDC1 (UniProt Q6P996) | -0.964 | -0.497 | 0.73
VDAC2 (UniProt P45880) | 0.262 | 0.307 | 1.58
VWA8 (UniProt A3KMH1) | -0.654 | -0.345 | -0.561
WDR18 (UniProt Q9BV38) | 1.38 | 0.361 | 0.122
BCAP29 (UniProt Q9UHQ4) | 0.262 | 0.211 | -0.458
TIGAR (UniProt Q9NQ88) | -1.91 | 0.677 | 0.655
UHRF1BP1 (UniProt Q6BDS2) | -0.235 | 0.193 | 0.149
PLGRKT (UniProt Q9HBL7) | 0.684 | 0.147 | 0.783
MRPL28 (UniProt Q13084) | -0.527 | -0.172 | -0.154
TRMT13 (UniProt Q9NUP7) | -0.376 | -1.34 | 0.263
NEK7 (UniProt Q8TDX7) | -0.813 | -0.453 | -0.53
CKB (UniProt P12277) | -0.249 | -0.245 | -1.02
PPP1R10 (UniProt Q96QC0) | 0.565 | 0.255 | 0.332
MTR (UniProt Q99707) | -0.354 | -0.00141 | 0.289
CLTA (UniProt P09496) | 1.35 | 1.54 | 0.655
